Experimental data published in ChEMBL document CHEMBL1201862, “PubChem BioAssay data set” (2004).
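Protocol summary: plate cells (96-well), add compound at 5 concentrations, incubate 48 h, interpolate endpoints linearly. The concentration for 50% growth inhibition is given as GI50.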 Active and inactive are the calls of the source. Cut-off read from the data, not from the text of the source: active = GI50 up to about 1.1 µM and inactive = higher.

How the values were obtained:
Experiment in all cases: NCI tumour cell line growth inhibition, 48 h
DU-145 = system: DU-145
HOP-62 = system: HOP-62
SF-539 = system: SF-539
A498 = system: A498
MDA-MB-231 = system: MDA-MB-231
BT-549 = system: BT-549
NCI-H460 = system: NCI-H460
Hs-578T = system: Hs-578T
SNB-19 = system: SNB-19
SK-MEL-28 = system: SK-MEL-28
SNB-75 = system: SNB-75
OVCAR-4 = system: OVCAR-4
UACC-62 = system: UACC-62
NCI-H23 = system: NCI-H23
MOLT-4 = system: MOLT-4
M14 = system: M14
HCT-15 = system: HCT-15
RPMI-8226 = system: RPMI-8226
SK-OV-3 = system: SK-OV-3
UACC-257 = system: UACC-257
TK-10 = system: TK-10
SN12C = system: SN12C
HCC 2998 = system: HCC 2998
SR = system: SR
MDA-N = system: MDA-N
OVCAR-3 = system: OVCAR-3
RXF 393 = system: RXF 393
COLO 205 = system: COLO 205
HL-60 = system: HL-60
T47D = system: T47D
OVCAR-5 = system: OVCAR-5
LOX IMVI = system: LOX IMVI
MCF7 = system: MCF7
HCT-116 = system: HCT-116
U-251 = system: U-251
SF-295 = system: SF-295
EKVX = system: EKVX
MDA-MB-435 = system: MDA-MB-435
CCRF-CEM = system: CCRF-CEM
SK-MEL-2 = system: SK-MEL-2
A549 = system: A549
IGROV-1 = system: IGROV-1
HOP-92 = system: HOP-92
KM12 = system: KM12
K562 = system: K562
786-0 = system: 786-0
OVCAR-8 = system: OVCAR-8
NCI-H522 = system: NCI-H522
NCI/ADR-RES = system: NCI/ADR-RES
SF-268 = system: SF-268
HT-29 = system: HT-29
PC-3 = system: PC-3
NCI-H226 = system: NCI-H226
SW-620 = system: SW-620
CAKI-1 = system: CAKI-1
ACHN = system: ACHN
Malme-3M = system: Malme-3M
SK-MEL-5 = system: SK-MEL-5
UO-31 = system: UO-31

Measured: GI50

CN(C)CCCSc1nc2c(c(=N)n1-c1ccccc1)c(=S)n(-c1ccccc1)c(=S)n2-c1ccccc1
active: MOLT-4 0.789 µM | RPMI-8226 0.39 µM | SR 0.237 µM | HL-60 0.798 µM | MCF7 0.383 µM | CCRF-CEM 0.43 µM | K562 0.459 µM
inactive: DU-145 1.67 µM | HOP-62 1.8 µM | SF-539 2.52 µM | A498 2.42 µM | MDA-MB-231 1.61 µM | BT-549 1.68 µM | NCI-H460 1.82 µM | Hs-578T 3.12 µM | SNB-19 2.51 µM | SK-MEL-28 2.04 µM | SNB-75 1.63 µM | OVCAR-4 1.79 µM | UACC-62 1.78 µM | NCI-H23 2.07 µM | M14 1.78 µM | SK-OV-3 2.65 µM | UACC-257 1.77 µM | TK-10 1.71 µM | SN12C 1.74 µM | HCC 2998 1.45 µM | MDA-N 1.71 µM | OVCAR-3 1.75 µM | RXF 393 1.57 µM | COLO 205 1.9 µM | T47D 2.01 µM | OVCAR-5 11.3 µM | LOX IMVI 1.29 µM | HCT-116 1.98 µM | U-251 1.75 µM | SF-295 5.21 µM | EKVX 1.91 µM | MDA-MB-435 1.72 µM | SK-MEL-2 2.12 µM | A549 1.95 µM | IGROV-1 1.83 µM | HOP-92 1.8 µM | KM12 1.83 µM | 786-0 1.27 µM | OVCAR-8 1.77 µM | NCI-H522 1.69 µM | NCI/ADR-RES 2.59 µM | SF-268 1.73 µM | HT-29 2.17 µM | PC-3 1.75 µM | NCI-H226 4.74 µM | SW-620 1.79 µM | CAKI-1 1.77 µM | ACHN 1.82 µM | Malme-3M 2.04 µM | SK-MEL-5 1.91 µM
1.61 µM: HCT-15

Cc1ccc([N+](=O)[O-])cc1S(=O)(=O)Nc1ccc(C(=O)/C=C/c2cccs2)cc1
inactive: DU-145 23.3 µM | HOP-62 22.1 µM | SF-539 27.2 µM | A498 15.3 µM | MDA-MB-231 16.3 µM | BT-549 18.7 µM | NCI-H460 51.5 µM | Hs-578T 36.3 µM | SNB-19 21.5 µM | SK-MEL-28 23.1 µM | SNB-75 19.3 µM | OVCAR-4 22.5 µM | UACC-62 16.3 µM | NCI-H23 20.2 µM | MOLT-4 22.2 µM | M14 20.1 µM | RPMI-8226 20.7 µM | SK-OV-3 44.1 µM | UACC-257 20.5 µM | TK-10 56.2 µM | SN12C 24.2 µM | HCC 2998 18.5 µM | SR 18.9 µM | MDA-N 25.2 µM | OVCAR-3 20.8 µM | RXF 393 17.7 µM | COLO 205 24.1 µM | HL-60 28.3 µM | T47D 25.6 µM | OVCAR-5 31.5 µM | LOX IMVI 20.7 µM | MCF7 15.7 µM | HCT-116 18.2 µM | SF-295 32.7 µM | EKVX 20.1 µM | MDA-MB-435 17.6 µM | SK-MEL-2 20.6 µM | A549 91.6 µM | IGROV-1 36.6 µM | HOP-92 27.9 µM | KM12 16.6 µM | K562 29 µM | 786-0 18.4 µM | OVCAR-8 37.4 µM | NCI-H522 19.2 µM | NCI/ADR-RES 24.9 µM | SF-268 32 µM | UO-31 20 µM | HT-29 18.9 µM | PC-3 21.1 µM | NCI-H226 22.5 µM | SW-620 22.4 µM | CAKI-1 16.2 µM | ACHN 29.4 µM | Malme-3M 27.4 µM | SK-MEL-5 16.9 µM
active: CCRF-CEM 0.271 µM
23.4 µM: HCT-15
